One block for each molecule: values may come before it.
Assay: xn = mol fraction of the nth substance listed
Conditions: 101 kPa, Liquid, x1 = 0

Compound: CCCCCCCCn1cc[n+](C)c1.O=S(=O)([N-]S(=O)(=O)C(F)(F)F)C(F)(F)F + CC#N
binary diffusion coefficient (283 K): 1.62e-09 m2/s
binary diffusion coefficient (298 K): 2e-09 m2/s
binary diffusion coefficient (313 K): 2.31e-09 m2/s
binary diffusion coefficient (323 K): 2.57e-09 m2/s
binary diffusion coefficient (333 K): 2.86e-09 m2/s

Compound: CCCCCC[n+]1ccn(C)c1.O=S(=O)([N-]S(=O)(=O)C(F)(F)F)C(F)(F)F + CC#N
binary diffusion coefficient (283 K): 1.67e-09 m2/s
binary diffusion coefficient (298 K): 2.1e-09 m2/s
binary diffusion coefficient (313 K): 2.51e-09 m2/s
binary diffusion coefficient (323 K): 2.74e-09 m2/s
binary diffusion coefficient (333 K): 2.99e-09 m2/s

Compound: CCCC[n+]1ccn(C)c1.O=S(=O)([N-]S(=O)(=O)C(F)(F)F)C(F)(F)F + CC#N
binary diffusion coefficient (283 K): 1.7e-09 m2/s
binary diffusion coefficient (298 K): 2.22e-09 m2/s
binary diffusion coefficient (313 K): 2.7e-09 m2/s
binary diffusion coefficient (323 K): 3.07e-09 m2/s
binary diffusion coefficient (333 K): 3.45e-09 m2/s

Compound: CCn1cc[n+](C)c1.O=S(=O)([N-]S(=O)(=O)C(F)(F)F)C(F)(F)F + CC#N
binary diffusion coefficient (283 K): 1.79e-09 m2/s
binary diffusion coefficient (298 K): 2.29e-09 m2/s
binary diffusion coefficient (313 K): 2.78e-09 m2/s
binary diffusion coefficient (323 K): 3.15e-09 m2/s
binary diffusion coefficient (333 K): 3.48e-09 m2/s

Compound: CCCCCCCCn1cc[n+](C)c1.O=S(=O)([N-]S(=O)(=O)C(F)(F)F)C(F)(F)F + CO
binary diffusion coefficient (283 K): 9.9e-10 m2/s
binary diffusion coefficient (298 K): 1.32e-09 m2/s
binary diffusion coefficient (313 K): 1.59e-09 m2/s
binary diffusion coefficient (323 K): 1.83e-09 m2/s
binary diffusion coefficient (333 K): 2.12e-09 m2/s

Compound: CCCCCC[n+]1ccn(C)c1.O=S(=O)([N-]S(=O)(=O)C(F)(F)F)C(F)(F)F + CO
binary diffusion coefficient (283 K): 1.05e-09 m2/s
binary diffusion coefficient (298 K): 1.34e-09 m2/s
binary diffusion coefficient (313 K): 1.64e-09 m2/s
binary diffusion coefficient (323 K): 1.99e-09 m2/s
binary diffusion coefficient (333 K): 2.21e-09 m2/s

Compound: CCCC[n+]1ccn(C)c1.O=S(=O)([N-]S(=O)(=O)C(F)(F)F)C(F)(F)F + CO
binary diffusion coefficient (283 K): 1.11e-09 m2/s
binary diffusion coefficient (298 K): 1.48e-09 m2/s
binary diffusion coefficient (313 K): 1.88e-09 m2/s
binary diffusion coefficient (323 K): 2.15e-09 m2/s
binary diffusion coefficient (333 K): 2.43e-09 m2/s

Compound: CCn1cc[n+](C)c1.O=S(=O)([N-]S(=O)(=O)C(F)(F)F)C(F)(F)F + CO
binary diffusion coefficient (283 K): 1.17e-09 m2/s
binary diffusion coefficient (298 K): 1.6e-09 m2/s
binary diffusion coefficient (313 K): 2.03e-09 m2/s
binary diffusion coefficient (323 K): 2.3e-09 m2/s
binary diffusion coefficient (333 K): 2.69e-09 m2/s

Compound: CCCCCCCCn1cc[n+](C)c1.O=S(=O)([N-]S(=O)(=O)C(F)(F)F)C(F)(F)F + O
binary diffusion coefficient (283 K): 5.7e-10 m2/s
binary diffusion coefficient (298 K): 8.1e-10 m2/s
binary diffusion coefficient (303 K): 8.7e-10 m2/s
binary diffusion coefficient (313 K): 1.05e-09 m2/s
binary diffusion coefficient (323 K): 1.31e-09 m2/s
binary diffusion coefficient (333 K): 1.47e-09 m2/s

Compound: CCCCCC[n+]1ccn(C)c1.O=S(=O)([N-]S(=O)(=O)C(F)(F)F)C(F)(F)F + O
binary diffusion coefficient (283 K): 5.8e-10 m2/s
binary diffusion coefficient (298 K): 8.3e-10 m2/s
binary diffusion coefficient (303 K): 9e-10 m2/s
binary diffusion coefficient (313 K): 1.15e-09 m2/s
binary diffusion coefficient (323 K): 1.39e-09 m2/s
binary diffusion coefficient (333 K): 1.63e-09 m2/s

Compound: CCCC[n+]1ccn(C)c1.O=S(=O)([N-]S(=O)(=O)C(F)(F)F)C(F)(F)F + O
binary diffusion coefficient (283 K): 6e-10 m2/s
binary diffusion coefficient (298 K): 8.5e-10 m2/s
binary diffusion coefficient (303 K): 9.6e-10 m2/s
binary diffusion coefficient (313 K): 1.16e-09 m2/s
binary diffusion coefficient (323 K): 1.47e-09 m2/s
binary diffusion coefficient (333 K): 1.74e-09 m2/s

Compound: CCn1cc[n+](C)c1.O=S(=O)([N-]S(=O)(=O)C(F)(F)F)C(F)(F)F + O
binary diffusion coefficient (283 K): 6.1e-10 m2/s
binary diffusion coefficient (298 K): 8.9e-10 m2/s
binary diffusion coefficient (303 K): 9.8e-10 m2/s
binary diffusion coefficient (313 K): 1.27e-09 m2/s
binary diffusion coefficient (323 K): 1.55e-09 m2/s
binary diffusion coefficient (333 K): 1.85e-09 m2/s

binary diffusion coefficient (283 K): 8.3e-10 m2/s
binary diffusion coefficient (298 K): 1.18e-09 m2/s
binary diffusion coefficient (303 K): 1.32e-09 m2/s
binary diffusion coefficient (313 K): 1.66e-09 m2/s
binary diffusion coefficient (323 K): 2.01e-09 m2/s
binary diffusion coefficient (333 K): 2.4e-09 m2/s
Compound: CCCCn1cc[n+](C)c1.[Cl-] [1-butyl-3-methylimidazolium chloride] + O

binary diffusion coefficient (283 K): 7.7e-10 m2/s
binary diffusion coefficient (298 K): 1.14e-09 m2/s
binary diffusion coefficient (303 K): 1.28e-09 m2/s
binary diffusion coefficient (313 K): 1.55e-09 m2/s
binary diffusion coefficient (323 K): 1.97e-09 m2/s
binary diffusion coefficient (333 K): 2.26e-09 m2/s
Compound: CCCCn1cc[n+](C)c1.F[B-](F)(F)F [1-butyl-3-methylimidazolium tetrafluoroborate] + O
